Read-outs that look alike come from different tables or passages of the source.
What was measured:
[1] = Leaching of infiltrated oil in a microfluidic system under water flow; type: physicochemical
Experimental: Experiments were conducted to determine whether fluid from SLIPS leach into the surrounding biological fluid. A nanostructured post array surface (2 μm tall posts, 300 nm diameter, 0.9 μm spacing) with infiltrated perfluorinated oil (Fluorinert FC-70) was integrated into a microfluidic system. Deionized water flowed into the channel at a rate of 12 mL/min (i.e., 720 mL/hr) for 5 minutes. […] The slipperiness of the surface was examined by putting a droplet of decane on the surface. If decane applied to the surface maintains its mobility on the surface, then the lubricants remain attached on the structured surface. However, if decane remains pinned on the surface, the lubricant layer has not been maintained. Leaching can also be monitored by extracting fluid that has passed over SLIPS into a fluorinated solvent followed by followed by chromatography and mass spectrometry and 19F-NMR.
Defining maximum leaching of the infiltrated fluid as the ratio between the total amounts of the perfluorinated oil infiltrated the surface and the volume of water processed in the microfluidic system, the maximum leaching was <0.2%. Because perfluorocarbons are already approved by the Food and Drug Administration as blood substitutes, leaching of this amount of oil is expected to be harmless. […]

[2] = Contact angles of various liquids on flat solids; type: physicochemical; design: unit not given here
Experimental: The behavior of liquids on surfaces is described by an equilibrium contact angle. An equilibrium contact angle, θ, is the angle at which a liquid/vapor interface meets a solid surface, which is determined by the interactions across the three interfaces, e.g., solid/liquid/vapor. […] The upper limit is known as the apparent advancing contact angle (θA), whereas the lower limit is referred as the apparent receding contact angle (θR). The difference between these values is known as contact angle hysteresis (i.e., Δθ=θA−θR, where θA≥θ≥θR), which characterizes the liquid repellency of a surface. Conventionally, equilibrium contact angle can be roughly estimated by the average of the advancing and receding angles (i.e., θ=(θA+θR)/2), or by a static contact angle, θstatic (i.e., θ=θstatic).
In practice, contact angle measurement can be performed by a number of different well-established techniques, such as the sessile drop method and the Wilhelmy method. In particular, the sessile drop method is among the most popular technique for contact angle measurement. In this technique, a liquid droplet is deposited on a targeted solid surface, where the liquid profile is captured by an optical system of a goniometer and geometrically fitted to obtain the contact angle. The contact angle measured from a static liquid droplet deposited on the surface is known as the static contact angle, θstatic. Using the same system, advancing contact angle, θA, can be measured while the volume of the drop is increasing until the wetting line starts to advance. Receding contact angle, θR, can be measured by decreasing the volume of the drop and determining the contact angle just before the wetting line recedes. Alternatively, the advancing and the receding angles of the liquid drop can also be determined by gradually tilting the solid surface until the liquid drop starts to move.

[3] = tested on: P. aeruginosa; conditions: 1% and 0.1% concentrations; 3, 6, 9, and 30 hours; 550 nm
[4] = Surface tension of polar and non-polar liquids; type: physicochemical
Source text: Fluid-fluid interfacial tension can be measured by many well-established techniques, such as the Wilhelmy plate method, the Du Noüy ring method, and the pendant drop method (e.g., see Drelich et al., in Encyclopedia of Surface and Colloid Science, pp. 3152-3166, Marcel Dekker Inc, 2002, the contents of which is incorporated by reference herein in its entirety). Among all of the techniques, the pendant drop method is among the most popular and versatile technique, which can be easily extended to a two-liquid system. The pendant drop method measures the shape of a fluid-fluid interface and quantifies the shape distortion due to the competition between the fluid-fluid interfacial tension and gravity. In practice, a drop of denser fluid (e.g., Object A) is suspended by a syringe needle in medium X (i.e., air/water/the lubricating fluid). Owing to the influence of gravity, the denser liquid droplet will be deformed as the liquid volume increases. The shape profile of the liquid droplet is captured by an optical system and subsequently analyzed by a computer software when the liquid volume is increased to the maximum possible size (i.e., before the liquid drop is detached from the syringe needle). The interfacial tension of the fluid-fluid interface, γ, can then be deduced from the formula, γ=ΔρgD^2/H, where Δρ is the density difference between the two immiscible fluids, g is gravity, D is equatorial diameter of the liquid droplet, and H is drop shape dependent parameters which is a function of the shape profile of the droplet.

[5] = tested on: Pseudomonas aeruginosa (PA-14); test: Toxicity screening of lubricating fluids by CFU quantification; conditions: 1% versus 0.01% of product in tryptone broth, 37° C. overnight, orbital shaker
Experimental: (§1) The toxicity screening assay was based on adding 1% and 0.01% of each commercial product to 10 mL aliquots of tryptone broth, which were inoculated with 1% initial seeding concentration of Pseudomonas aeruginosa (PA-14) preculture and incubated at 37° C. overnight in an orbital shaker. The shaken culture was serially diluted, plated, and incubated for colony forming unit (CFU) quantification.

[6] = tested on: Pseudomonas aeruginosa (PA-14)
Experimental: as §1

[7] = flat solid S. (silanized epoxy)

Structure (SMILES) | retention of infiltrated oil on nanostructured surface ([1]; deionized water 12 mL/min for 5 minutes, nanostructured post array) | maximum leaching ([1]; ratio of total infiltrated oil to volume of water processed) [%] | Measured contact angle θadv ([2]; flat solid Epoxy) | Measured contact angle θrec ([2]; flat solid Epoxy) | Measured contact angle θstatic ([2]; flat solid Epoxy) | Measured contact angle θadv [2, 7] | Measured contact angle θrec [2, 7] | Measured contact angle θstatic [2, 7] | bacterial growth (optical densities) compared to control culture [3] | Surface Tension [4] [mN/m] | toxicity screening, CFU [5] | toxicity screening, CFU [6]
FC(F)(F)C(F)(F)C(F)(F)C(F)(F)C(F)(F)N(C(F)(F)C(F)(F)C(F)(F)C(F)(F)C(F)(F)F)C(F)(F)C(F)(F)C(F)(F)C(F)(F)C(F)(F)F [FC-70, perfluoro-tripentylamine] | remained intact | < 0.2 | 35.1 ± 0.6 | 26.7 ± 1.4 | 33.5 ± 1.1 | 23.7 ± 4.1 | 0.0 ± 0.0 | 14.1 ± 0.8 | statistically indistinguishable bacterial growth | 17.1 ± 0.3 | Significantly reduced CFU | 
FC1(F)C(F)(F)C(F)(F)C2(F)C(F)(F)C(F)(F)C(F)(F)C(F)(F)C2(F)C1(F)F (stereo not shown) [Perfluorodecalin] |  |  |  |  |  |  |  |  | statistically indistinguishable bacterial growth |  |  | Significantly reduced CFU

Source: patent US10982100B2, “Slippery liquid-infused porous surfaces and biological applications thereof” (President and Fellows of Harvard College, priority 2011, dated 2021)
